According to ChEMBL document CHEMBL4622911, “A cell-based fluorescent assay for FAP inhibitor discovery” (Bioorg Med Chem Lett, 2020):

Assays:
Assay type in all cases: cell-based
Conditions in all cases: U-87MG ATCC
[1] = target: Prolyl endopeptidase FAP (Homo sapiens) (UniProt Q12884); assay: Inhibition of FAP in human U87MG cells using Suc-Gly-Pro-AMC as substrate at 1 uM incubated for 90 mins by fluorescence based assay relative to control
[2] = target: Prolyl endopeptidase FAP (Homo sapiens) (UniProt Q12884); assay: Inhibition of FAP in human U87MG cells using Z-Gly-Pro-AMC as substrate at 1 uM incubated for 90 mins by fluorescence based assay relative to control
[3] = target: Prolyl endopeptidase FAP (Homo sapiens) (UniProt Q12884); assay: Inhibition of FAP in human U87MG cells using Gly-Pro-AMC as substrate at 1 uM incubated for 90 mins by fluorescence based assay relative to control

Prolyl endopeptidase FAP (Homo sapiens), sequence (Q12884 whole entry): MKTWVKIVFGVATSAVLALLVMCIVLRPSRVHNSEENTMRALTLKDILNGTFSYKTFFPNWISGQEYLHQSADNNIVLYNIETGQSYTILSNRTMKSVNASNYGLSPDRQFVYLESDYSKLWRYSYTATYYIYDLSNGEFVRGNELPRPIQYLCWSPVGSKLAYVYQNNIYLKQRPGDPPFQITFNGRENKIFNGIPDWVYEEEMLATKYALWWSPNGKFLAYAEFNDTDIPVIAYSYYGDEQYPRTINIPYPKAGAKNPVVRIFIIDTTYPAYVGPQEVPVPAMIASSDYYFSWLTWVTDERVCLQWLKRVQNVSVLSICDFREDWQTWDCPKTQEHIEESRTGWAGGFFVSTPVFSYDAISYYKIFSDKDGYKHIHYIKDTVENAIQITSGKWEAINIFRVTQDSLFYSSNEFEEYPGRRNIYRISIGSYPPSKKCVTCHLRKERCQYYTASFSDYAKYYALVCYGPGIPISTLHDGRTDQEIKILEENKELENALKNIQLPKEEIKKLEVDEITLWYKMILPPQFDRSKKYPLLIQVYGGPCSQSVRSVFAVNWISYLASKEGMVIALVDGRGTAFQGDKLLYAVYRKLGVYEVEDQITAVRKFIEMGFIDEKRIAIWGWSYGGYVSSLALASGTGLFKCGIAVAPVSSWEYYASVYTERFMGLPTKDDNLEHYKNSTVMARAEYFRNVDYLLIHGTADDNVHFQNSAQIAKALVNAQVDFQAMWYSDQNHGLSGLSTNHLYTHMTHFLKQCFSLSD

inhibition [1]: 91.9%
inhibition [2]: 30.7%
inhibition [3]: 17.5%
SMILES: N#C[C@@H]1CC(F)(F)CN1C(=O)CNC(=O)c1ccnc2ccccc12
